Our source for the IC50 and EC50 values is ChEMBL document CHEMBL5360552, “Potential RNA-dependent RNA polymerase (RdRp) inhibitors as prospective drug candidates for SARS-CoV-2” (Eur J Med Chem, 2023).

pEC50, pIC50: −log10 of the molar value.

What is called pIC50 is −log10 of the IC50, conventionally taken in molar units. The pEC50 is the EC50 on a negative log10 scale, so that one unit is a factor of ten.

Experiment [1] has as its system SARS-CoV-2. As to the kind of experiment: Antiviral activity against SARS-CoV-2 omicron variant infected in human Calu-3 cells of organoid assessed as intracellular viral RNA level measured after 48 hrs by qRT-PCR analysis. In kind it is functional, organism-based. The conditions noted are these: Severe acute respiratory syndrome coronavirus 2, Calu-3, 48 h. A general note: Quantitative PCR measures a nucleic acid by following its amplification.

Experiment [2] relates to SARS-CoV-2. As to the kind of experiment: Antiviral activity against SARS-CoV-2 infected in african green monkey Vero E6 cells pretreated for 1 hrs followed by viral infection for 2 hrs and replaced with fresh medium for 48 hrs post infection by qRT-PCR. The format is functional, organism-based. The settings on record: Severe acute respiratory syndrome coronavirus 2, Vero C1008.

Regarding `CC(C)C(=O)OC[C@H]1O[C@@H](n2cc/c(=N\O)[nH]c2=O)[C@H](O)[C@@H]1O` [MOLNUPIRAVIR], the negative-log IC50 (pIC50) with SARS-CoV-2 [1] is 6.12. Take `CCC(CC)COC(=O)[C@H](C)N[P@](=O)(OC[C@H]1O[C@@](C#N)(c2ccc3c(N)ncnn23)[C@H](O)[C@@H]1O)Oc1ccccc1`: the negative-log EC50 (pEC50) in the experiment on SARS-CoV-2 [2] was 6.11.
